From patent EP0116208A1, “Mitomycin analogues” (KYOWA HAKKO KOGYO CO., LTD., priority 1982, dated 1984) come the findings set out here.

For one series, the system named is Sarcoma 180 solid tumour. The series can be described thus: Effect on Sarcoma 180 solid tumour (ED50, chemotherapeutic index). Format: in vivo, ddy mice. To be noted: Anti-tumour activity; ratio of LD50 to ED50; ED50 = dose giving T/C 0.5 of Sarcoma 180 solid tumour volume, intraperitoneal injection. The text has this:
(1) Effect on Sarcoma 180 solid tumour:
5 x 10^6 cells of Sarcoma 180 solid tumour were innoculated into the abdominal cavities of groups of ddy mice, each group consisting of 5 mice. 7..days after this, on each occasion, the tumour cells were collected from the ascites of the mouse. The cells were washed with a sterilized physiological sodium chloride solution and used to prepare a cell suspension containing 5 x 10^7 cells per ml of a sterilized physiological solution of sodium chloride, of which 0.1 ml was injected under the skin of the right armpit of a ddy male mouse (body weight 20 ±2 g). A test compound was dissolved in a physiological solution of sodium chloride or a similar solution containing Tween 80 (a surfactant commercially available from Atlas Chemical Industries, Inc., U.S.A.). 24 hours after the implantation of the tumours cells, the test compound (0.1 to 0.2 ml) was injected into the test mice intraperitoneally. In order to determine the antitumour activity of the test compound, 7 days after the implantation of the tumour cells, on each occasion, the major axis (a) and minor axis (b) of the tumour were measured to calculate the volume of the tumour ['a' x ^Ib'/2]. The anti-tumour effect was evaluated by the ratio of the tumour volume in the test animals (T) to the corresponding volume of the control (untreated) animals (C).
(2) Determination of ED50.
A dose capable of reducing the volume of a Sarcoma 180 solid tumour to 50% of the corresponding volume of the untreated group on average was defined as the ED50. T/C ratios and the doses were respectively plotted on the ordinate in arithmetic scale and abscissa in logarithmic scale on graph paper, from which the relationship between the doses and the T/C ratios was calculated as a straight line by the least square method. From the straight tropic line thus-obtained, the dose corresponding to a T/C of 0.5 was determined.

Another series is described as follows: Acute toxicity (LD50). Details: species or system mice. To be noted: mouse, in vivo; death ratio observed for 14 days; Behrens-Korber's method. The text has this: (3) Acute toxicity (LD50):
On each occasion, the test compound was given to the test animal.

Series [1] can be described thus: Effect upon the number of peripheral leukocytes (WBC 4000). The format is in vivo. To be noted: mouse, Toxicity against bone marrow, WBC 4000 = dose giving 4000 leukocytes/mm3, Sarcoma 180 bearing mice, read-out: WBC 4000/ ED50. Here is the method:
(5) Effect upon the number of peripheral leukocytes:
5 x 10^6 cells of Sarcoma 180 solid tumour were implanted under the skin of each mouse at the right armpit. 24 hours after this, venous blood (0.02 ml) was collected from the eyepit of the mouse and suspended in Cell-Kit Seven solution (10 ml; commercially available from Toa Iryo Denshi K.K., Japan).
To the suspension, a drop of saponin solution was added to dissolve the red cells and the number of leukocytes were counted using a microcell counter. The number of leukocytes and the corresponding dose were respectively plotted on the ordinate in arithmetic scale and on the abscissa in logarithmic scale on graph paper to investigate the relationship between dosage and the number of peripherical leukocytes. A dose capable of giving 4000 leukocytes/mm3 was defined as WBC 4000, which corresponded to about 1/2 the number of peripherical leukocytes in normal mice.
The greater the ratio of WBC 4000 to ED50 the smaller the decrease in the number of peripherical leukocytes viz. the lower the toxicity against bone marrow in the area of the effective dose.

A word on the LD50: it is the dose at which mortality reaches 50%. `CC1=C(NCCSSCCNC2=C(C)C(=O)C3=C(C2=O)C(COC(N)=O)C2(O)C4C(CN32)N4C)C(=O)C2=C(C1=O)N1CC3C(N3C)C1(O)C2COC(N)=O` (stereo not drawn) [a, 7-N,7'-N'-dithiodiethylenedimitomycin D]: the C.I. with Sarcoma 180 solid tumour is more than 2.99. Moreover, in the series “Acute toxicity (LD50)”, the LD50 at 336 h is more than 60 mg/kg. Besides, the selectivity ratio in series [1] is 2.29.
Turning to `CC1=C(NCCSSCCN)C(=O)C2=C(C1=O)N1CC3C(N3C)C1(O)C2COC(N)=O` (stereo not drawn) [c, 7-N-[2-(2-aminoethyl)dithioethyl]mitomycin D], the C.I. in the series on Sarcoma 180 solid tumour amounted to 3.11. In “Acute toxicity (LD50)”, the LD50 at 336 h was 74.3 mg/kg. Further, the selectivity ratio in series [1] turned out to be 1.87.
With `CCSSCCNC1=C(C)C(=O)C2=C(C1=O)C(COC(N)=O)C1(OC)C3NC3CN21` (stereo not drawn) [g, 7-N-(2-ethyldithioethyl)mitomycin C], in the series with Sarcoma 180 solid tumour, the C.I. came out at 1.64. In addition, the LD50 at 336 h in the series “Acute toxicity (LD50)” worked out at 5.4 mg/kg. For the same compound, in series [1], the selectivity ratio came to 3.76.
Taken in the same sequence, the figures for `COC12C(COC(N)=O)C3=C(C(=O)C(C)=C(NCCSSCCO)C3=O)N1CC1NC12` (stereo not drawn) [i, 7-N-[2-(2-hydroxyethyl)dithioethyl]mitomycin C] were not above 2.12, not above 11.2 mg/kg and 2.13.
For the compound `COC12C(COC(N)=O)C3=C(C(=O)C(C)=C(NC4CSSC4)C3=O)N1CC1NC12` (stereo not drawn) [j, 7-N-(1,2-dithiolan-4-yl)mitomycin C], the LD50 at 336 h in “Acute toxicity (LD50)” was 5.25 mg/kg.
`CC1=C(NC2CSSC2)C(=O)C2=C(C1=O)N1CC3C(N3C)C1(O)C2COC(N)=O` (stereo not drawn) [l, 7-N-(1,2-dithiolan-4-yl)mitomycin D]: the LD50 at 336 h in the series “Acute toxicity (LD50)” was determined as 35.6 mg/kg.
Turning to `COC12C(COC(N)=O)C3=C(C(=O)C(C)=C(NCCSSCC(O)CO)C3=O)N1CC1NC12` (stereo not drawn) [o, 7-N-[2-(2,3-dihydroxypropyl)dithioethyl]mitomycin C], in “Acute toxicity (LD50)”, the LD50 at 336 h amounted to 22.5 mg/kg.
With `COC12C(COC(N)=O)C3=C(C(=O)C(C)=C(NCCSSCCN)C3=O)N1CC1NC12` (stereo not drawn) [r, 7-N-[2-(2-aminoethyl)dithioethyl)mitomycin C], the C.I. in the series on Sarcoma 180 solid tumour was 0.73. The LD50 at 336 h in “Acute toxicity (LD50)” came to 13.5 mg/kg. The selectivity ratio in series [1] turned out to be 1.25.
In the case of `COC12C(COC(N)=O)C3=C(C(=O)C(C)=C(NCCSSCCNC4=C(C)C(=O)C5=C(C4=O)C(COC(N)=O)C4(OC)C6NC6CN54)C3=O)N1CC1NC12` (stereo not drawn) [s, 7-N-, 7'-N'-dithiodiethylenedimitomycin C], the C.I. with Sarcoma 180 solid tumour is 2.98. Besides, the LD50 at 336 h in the series “Acute toxicity (LD50)” worked out at 18.8 mg/kg. The selectivity ratio in series [1] was 2.63.
Regarding `COC12C(COC(N)=O)C3=C(C(=O)C(C)=C(NCCSSCCNC4=C(C)C(=O)C5=C(C4=O)C(COC(N)=O)C4(OC)C6C(CN54)N6C)C3=O)N1CC1C2N1C` (stereo not drawn) [t, 7-N, 7'-N'-dithiodiethylenediporfiromycin], in the series with Sarcoma 180 solid tumour, the C.I. was determined as 2.15. For the same compound, in the series “Acute toxicity (LD50)”, the LD50 at 336 h was found to be 33.8 mg/kg. For the same compound, the selectivity ratio in series [1] was 1.34.
